Key:
KAT5 = KAT5 (Homo sapiens, UniProt Q92993); assay: HAT in vitro assay, 10-dose IC50, KAT5; assay type: biochemical; conditions: substrate Histone H2A, 3 μM Acetyl-CoA; read-out: Compound IC50 KAT5
Experimental: For HAT in vitro assay, MC2884 activity was also tested in vitro and IC50 was calculated as indicated in the scheme. […] Reactions were carried out at 3 μM Acetyl-CoA. Empty cells indicate no inhibition or compound activity that could not be fit to an IC50 curve.

p300 = p300 (Homo sapiens, UniProt Q09472); assay: HAT in vitro assay, 10-dose IC50, p300; assay type: biochemical; conditions: substrate Histone H3, 3 μM Acetyl-CoA; read-out: Compound IC50 p300
Chain of p300 (Q09472 whole entry): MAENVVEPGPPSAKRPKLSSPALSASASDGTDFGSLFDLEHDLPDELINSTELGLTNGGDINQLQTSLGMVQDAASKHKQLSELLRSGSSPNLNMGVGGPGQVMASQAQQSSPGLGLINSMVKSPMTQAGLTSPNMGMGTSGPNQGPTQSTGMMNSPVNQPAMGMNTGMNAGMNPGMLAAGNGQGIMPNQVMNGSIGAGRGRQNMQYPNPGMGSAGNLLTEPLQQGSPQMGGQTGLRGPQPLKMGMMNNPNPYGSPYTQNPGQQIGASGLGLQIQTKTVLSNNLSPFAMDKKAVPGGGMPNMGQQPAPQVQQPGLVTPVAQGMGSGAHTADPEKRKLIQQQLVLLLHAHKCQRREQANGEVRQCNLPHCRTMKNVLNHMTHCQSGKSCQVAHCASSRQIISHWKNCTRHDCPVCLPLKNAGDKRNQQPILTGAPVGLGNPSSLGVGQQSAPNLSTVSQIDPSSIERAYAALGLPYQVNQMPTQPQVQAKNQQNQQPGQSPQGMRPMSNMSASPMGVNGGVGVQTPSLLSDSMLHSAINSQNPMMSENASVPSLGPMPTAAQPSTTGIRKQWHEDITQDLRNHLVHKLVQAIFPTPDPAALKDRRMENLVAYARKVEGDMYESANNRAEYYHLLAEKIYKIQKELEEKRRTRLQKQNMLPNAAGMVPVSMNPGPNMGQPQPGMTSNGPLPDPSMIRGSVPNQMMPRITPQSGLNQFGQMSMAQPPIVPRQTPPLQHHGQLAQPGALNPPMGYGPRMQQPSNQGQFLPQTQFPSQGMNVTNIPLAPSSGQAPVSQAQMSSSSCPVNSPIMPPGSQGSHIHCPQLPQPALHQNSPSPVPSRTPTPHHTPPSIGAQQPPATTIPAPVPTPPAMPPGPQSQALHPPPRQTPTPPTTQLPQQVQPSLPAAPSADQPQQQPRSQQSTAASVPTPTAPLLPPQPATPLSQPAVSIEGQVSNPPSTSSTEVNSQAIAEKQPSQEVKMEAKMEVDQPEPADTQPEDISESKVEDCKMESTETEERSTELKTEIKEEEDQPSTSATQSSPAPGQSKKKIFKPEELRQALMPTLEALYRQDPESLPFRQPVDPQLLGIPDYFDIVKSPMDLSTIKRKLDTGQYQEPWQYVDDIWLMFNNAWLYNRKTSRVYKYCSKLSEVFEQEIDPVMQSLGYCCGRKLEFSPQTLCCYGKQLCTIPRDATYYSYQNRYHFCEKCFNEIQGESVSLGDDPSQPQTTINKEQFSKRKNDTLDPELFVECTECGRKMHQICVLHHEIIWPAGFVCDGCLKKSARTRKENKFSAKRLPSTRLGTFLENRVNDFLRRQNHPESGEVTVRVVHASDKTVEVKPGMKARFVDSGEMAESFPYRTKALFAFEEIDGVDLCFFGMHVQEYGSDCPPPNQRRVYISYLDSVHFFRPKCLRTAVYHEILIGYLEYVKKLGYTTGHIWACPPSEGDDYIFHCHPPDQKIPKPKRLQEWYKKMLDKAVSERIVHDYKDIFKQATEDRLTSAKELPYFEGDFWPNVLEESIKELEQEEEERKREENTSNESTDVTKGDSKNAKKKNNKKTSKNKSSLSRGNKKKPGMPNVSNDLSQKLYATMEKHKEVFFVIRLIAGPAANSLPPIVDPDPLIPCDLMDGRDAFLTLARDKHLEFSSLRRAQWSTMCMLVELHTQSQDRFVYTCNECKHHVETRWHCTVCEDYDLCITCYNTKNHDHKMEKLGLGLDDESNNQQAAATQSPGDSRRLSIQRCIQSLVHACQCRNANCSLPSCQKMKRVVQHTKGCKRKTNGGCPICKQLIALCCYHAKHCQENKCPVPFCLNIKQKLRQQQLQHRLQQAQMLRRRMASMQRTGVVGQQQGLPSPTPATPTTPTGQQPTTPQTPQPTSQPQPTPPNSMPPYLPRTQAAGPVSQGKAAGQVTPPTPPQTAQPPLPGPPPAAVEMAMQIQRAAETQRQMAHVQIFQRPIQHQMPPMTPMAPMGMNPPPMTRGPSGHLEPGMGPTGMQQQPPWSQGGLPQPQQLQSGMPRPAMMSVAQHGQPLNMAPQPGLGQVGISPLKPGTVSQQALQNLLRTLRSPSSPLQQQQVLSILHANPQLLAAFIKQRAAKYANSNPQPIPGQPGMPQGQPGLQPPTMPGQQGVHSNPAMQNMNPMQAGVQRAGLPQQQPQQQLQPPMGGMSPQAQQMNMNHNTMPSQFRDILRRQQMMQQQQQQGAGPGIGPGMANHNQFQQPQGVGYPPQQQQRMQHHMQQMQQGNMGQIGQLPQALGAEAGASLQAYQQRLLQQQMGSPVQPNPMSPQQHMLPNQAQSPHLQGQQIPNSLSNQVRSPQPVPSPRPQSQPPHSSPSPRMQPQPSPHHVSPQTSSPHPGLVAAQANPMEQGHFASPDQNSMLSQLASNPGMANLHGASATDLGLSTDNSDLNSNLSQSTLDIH

SIRT1 = SIRT1 (Homo sapiens, UniProt Q96EB6); assay: SIRT1 in vitro assay; assay type: biochemical
Chain of SIRT1 (Q96EB6 whole entry): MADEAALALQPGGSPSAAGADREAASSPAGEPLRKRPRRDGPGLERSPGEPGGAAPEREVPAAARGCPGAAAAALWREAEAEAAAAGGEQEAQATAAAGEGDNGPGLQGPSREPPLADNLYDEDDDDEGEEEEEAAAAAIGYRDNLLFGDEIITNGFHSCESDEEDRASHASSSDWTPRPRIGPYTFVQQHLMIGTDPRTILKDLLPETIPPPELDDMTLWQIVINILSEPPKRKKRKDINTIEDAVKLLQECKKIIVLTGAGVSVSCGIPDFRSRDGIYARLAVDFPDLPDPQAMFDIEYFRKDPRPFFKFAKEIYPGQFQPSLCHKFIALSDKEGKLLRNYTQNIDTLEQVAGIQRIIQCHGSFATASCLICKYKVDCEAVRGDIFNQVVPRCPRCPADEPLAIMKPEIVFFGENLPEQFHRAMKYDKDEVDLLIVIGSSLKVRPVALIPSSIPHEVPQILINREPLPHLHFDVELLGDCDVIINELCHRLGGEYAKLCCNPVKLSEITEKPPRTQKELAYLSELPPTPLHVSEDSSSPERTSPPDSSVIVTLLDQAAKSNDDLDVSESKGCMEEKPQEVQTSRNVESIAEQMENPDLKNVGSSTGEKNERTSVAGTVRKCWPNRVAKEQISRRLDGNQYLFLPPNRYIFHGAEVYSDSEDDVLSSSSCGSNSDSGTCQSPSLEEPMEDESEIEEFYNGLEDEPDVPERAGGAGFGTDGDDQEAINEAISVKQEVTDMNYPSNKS
Experimental: The HDAC1 and SIRT1 assays were performed as described previously.

[1] = tested on: neuroblastoma SHSY5Y cells; assay: Cell death induction in SHSY5Y cells; assay type: cell-based; conditions: 3 μM, 48 h
Experimental: When tested in neuroblastoma SHSY5Y cells at tetrahydro-4H -pyran-4-one MC2912 failed in inducing
3 μM for 48 h, MC2884 and its analogues furnished cell death in SHSY5Y cells, whereas its thio-analogue
(Supplementary SAR Table 1). In general, the SHSY5Y similarly to what observed in NB4 cells.
than NB4 cells. Anyway, also in this cell line the death in both cell lines such as MC2910, 2912, 2909,
(MC2909), and bis 3,5-dibromophenyl (MC2910) were acetylation and EZH2 deregulation (SAR Figure 2). In […]
3-phenyl-1-propan-1-one chain at N1 (MC3187), which 3).

[2] = Body weight of leukemia-xenografted mice; assay type: in vivo; conditions: 1 mg/kg i.p. three times weekly, 16 days post-xenograft; control mice 94%
Experimental: (§1) Xenograft studies using NB4 and U937-AML cells were performed in NOG SCID mice under specific pathogen–free conditions. Cells (0.2 × 10^6 in 100 µL) were injected intravenously (retro orbital vein). Injected mice were randomly assigned to receive intra-peritoneal MC2884 (1 mg/kg) or vehicle for two weeks (8 doses) (10 mice per group). All animal procedures were performed in accordance with protocols approved by the local Committee for Animal Experimentation and with the permission of the Italian Health Ministry (n° 626/2015). At 16 days after injection, mice were sacrificed and the femurs and spleens were collected. Bone marrow (BM) and spleen cells were analyzed by FACS. To avoid non-specific stain, cells were mixed with mouse IgG and incubated with indicated antibodies for 30’. The mixture was depleted of erythrocytes and fixed (BD Pharmingen). […] Tumor growth was monitored by weekly bioluminescence imaging (BLI) acquisitions using an IVIS 3D Imaging System (Caliper Alameda, USA). To quantify bioluminescence, the integrated fluxes of photons (photons per s) within each area of interest were determined using the Living Images Software Package 3.2 (Caliper, Alameda, USA). […] Efficacy of drug treatment was assessed as inhibition of BLI emission comparing those MC2884 treated mice group and vehicle groups.

NB4 cells = assay: NB4 leukemia xenograft, human CD45+ cells in bone marrow; assay type: in vivo, mice; conditions: 1 mg/kg i.p., day 16
Experimental: as §1

Chain of KAT5 (Q92993 whole entry): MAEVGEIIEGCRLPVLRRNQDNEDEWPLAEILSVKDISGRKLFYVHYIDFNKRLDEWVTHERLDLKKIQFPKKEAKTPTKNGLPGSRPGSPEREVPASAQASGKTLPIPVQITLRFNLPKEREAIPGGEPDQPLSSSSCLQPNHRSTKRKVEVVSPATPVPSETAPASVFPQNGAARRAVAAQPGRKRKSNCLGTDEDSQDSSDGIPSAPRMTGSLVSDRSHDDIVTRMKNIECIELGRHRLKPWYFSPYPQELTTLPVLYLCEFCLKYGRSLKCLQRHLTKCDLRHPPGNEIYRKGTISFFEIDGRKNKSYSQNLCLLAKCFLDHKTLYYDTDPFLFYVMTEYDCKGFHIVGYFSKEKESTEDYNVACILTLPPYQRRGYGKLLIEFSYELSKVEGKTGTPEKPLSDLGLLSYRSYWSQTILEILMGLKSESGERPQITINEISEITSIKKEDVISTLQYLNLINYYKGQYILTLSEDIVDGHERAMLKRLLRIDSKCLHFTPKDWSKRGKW

In the case of `O=C1/C(=C/c2cccc(Br)c2)CN(Cc2ccccc2)C/C1=C\c1cccc(Br)c1` [MC2884], the IC50 (KAT5) is reported as 835 nM, the IC50 (p300) is reported as 456 nM and the SirT modulating action (SIRT1) is reported as “no activity”. The “% Cell death SHSY5Y cells” value [1] was 19.1%, the “normalized weight, % of initial weight” value [2] was 90% and the “human CD45+ cells in the bone marrow reduced to” value (NB4 cells) was 17%.
